The source made the active and inactive calls. No cut-off for these calls is given here.
Tests used:
[1] = system: MDA-MB-468; assay: Induction of autophagy in human MDA-MB-468 cells at 5 uM preincubated with 3-MA for 1 hr followed by compound addition and measured after 24 hrs by fluorescence microscopic analysis; assay type: functional, cell-based
[2] = system: MDA-MB-231; assay: Antitumor activity against human MDA-MB-231 cells xenografted in po dosed nude BALB/c mouse assessed as tumor growth inhibition administered once daily for 19 days and measured every 3 days; assay type: functional, organism-based; conditions: dose lower […], dose upper 50.0 mg/kg, time 19.0 day
[3] = system: MDA-MB-231; assay: Inhibition of colony formation in human MDA-MB-231 cells after 7 days by crystal violet staining based assay; assay type: functional, cell-based; conditions: dose 2.5-10 µM, time 7.0 day
[4] = system: Mus musculus; assay: Toxicity in nude BALB/c mouse xenografted with human MDA-MB-231 cells assessed as morphological changes in heart at 25 to 50 mg/kg, po administered once daily for 19 days and measured every 3 days by H and E staining based assay; assay type: organism-based; conditions: in vivo, 456 h, dose 25-50 mg/kg, time 19 day
[5] = system: Mus musculus; assay: Toxicity in nude BALB/c mouse xenografted with human MDA-MB-468 cells assessed as morphological changes in lung at 25 to 50 mg/kg, po administered once daily for 19 days and measured every 3 days by H and E staining based assay; assay type: organism-based; conditions: in vivo, 456 h, dose 25-50 mg/kg, time 19 day
[6] = system: Mus musculus; assay: Toxicity in nude BALB/c mouse xenografted with human MDA-MB-468 cells assessed as morphological changes in liver at 25 to 50 mg/kg, po administered once daily for 19 days and measured every 3 days by H and E staining based assay; assay type: organism-based; conditions: in vivo, 456 h, dose 25-50 mg/kg, time 19 day
[7] = system: Mus musculus; assay: Toxicity in nude BALB/c mouse xenografted with human MDA-MB-468 cells assessed as morphological changes in spleen at 25 to 50 mg/kg, po administered once daily for 19 days and measured every 3 days by H and E staining based assay; assay type: organism-based; conditions: in vivo, 456 h, dose 25-50 mg/kg, time 19 day
[8] = system: MDA-MB-231; assay: Antitumor activity against human MDA-MB-231 cells xenografted in nude BALB/c mouse assessed as tumor growth inhibition at 25 to 50 mg/kg, po administered once daily for 19 days and measured every 3 days by Ki-67 staining based immunohistochemical analysis; assay type: functional, organism-based; conditions: dose lower […], dose upper 50.0 mg/kg, time 19.0 day
[9] = system: MDA-MB-231; assay: Inhibition of colony formation in human MDA-MB-231 cells at 5 uM after 7 days in presence of 3-MA by crystal violet staining based assay; assay type: functional, cell-based; conditions: time 7.0 day
[10] = system: MDA-MB-231; assay: Induction of autophagy in human MDA-MB-231 cells harboring GFP-mRFP-LC3 assessed as autophagic flux at 5 uM after 24 hrs by fluorescence microscopic analysis; assay type: functional, cell-based
[11] = system: MDA-MB-468; assay: Inhibition of colony formation in human MDA-MB-468 cells after 7 days by crystal violet staining based assay; assay type: functional, cell-based; conditions: dose 2.5-10 µM, time 7.0 day
[12] = system: MDA-MB-231; assay: Induction of autophagy in human MDA-MB-231 cells at 5 uM preincubated with 3-MA for 1 hr followed by compound addition and measured after 24 hrs by fluorescence microscopic analysis; assay type: functional, cell-based
[13] = target: T1, Bromodomain-containing protein 4 (Homo sapiens, UniProt O60885); assay: Inhibition of BRD4 BD1/BD2 (unknown origin) incubated for 2 hrs by TR-FRET assay
[14] = AUC(0 to infinity) in Sprague-Dawley rat at 10 mg/kg, po by LC-MS analysis; assay type: ADME, organism-based; set-up: time infinity, dose 10 mg/kg, route po; conditions: in vivo
[15] = system: Mus musculus; assay: Down regulation of phosphorylation of AKT at S129 residue expression in BALB/c SCID mouse xenogrfted with human MDA-MB-231 cells at 25 to 50 mg/kg, po administered once daily for 19 days by Western blot analysis; assay type: functional, organism-based; conditions: dose lower […], dose upper 50.0 mg/kg, time 19.0 day
[16] = Oral bioavailability in Sprague-Dawley rat at 10 mg/kg by LC-MS analysis; assay type: ADME, organism-based; conditions: in vivo
[17] = system: Mus musculus; assay: Toxicity in nude BALB/c mouse xenografted with human MDA-MB-231 cells assessed as mortality at 25 to 50 mg/kg, po administered once daily for 19 days and measured every 3 days; assay type: organism-based; conditions: in vivo, 456 h, dose 25-50 mg/kg, time 19 day
[18] = system: MDA-MB-231; assay: Induction of autophagy in human MDA-MB-231 cells harboring GFP-mRFP-LC3 assessed as up regulation of LC3II level at 2.5 to 10 uM after 24 hrs by Western blot analysis; assay type: functional, cell-based; conditions: dose 2.5-10 µM
[19] = Half life in Sprague-Dawley rat at 1 mg/kg, iv by LC-MS analysis; assay type: ADME, organism-based; conditions: in vivo
[20] = system: MDA-MB-231; assay: Induction of apoptosis in human MDA-MB-231 cells assessed as down regulation of Bcl2 after 24 hrs by Western blot analysis; assay type: functional, cell-based; conditions: dose 2.5-10 µM
[21] = system: Mus musculus; assay: Toxicity in nude BALB/c mouse xenografted with human MDA-MB-231 cells assessed as change in body weight at 25 to 50 mg/kg, po administered once daily for 19 days and measured every 3 days; assay type: organism-based; conditions: in vivo, 456 h, dose 25-50 mg/kg, time 19 day
[22] = Half life in Sprague-Dawley rat at 10 mg/kg, po by LC-MS analysis; assay type: ADME, organism-based; conditions: in vivo
[23] = system: MCF-10A; assay: Antiproliferative activity against human MCF-10A cells incubated for 24 hrs by MTT assay; assay type: cell-based
[24] = system: MDA-MB-468; assay: Induction of apoptosis in human MDA-MB-468 cells assessed as up regulation of cleaved caspase 3 after 24 hrs by Western blot analysis; assay type: functional, cell-based; conditions: dose 2.5-10 µM
[25] = system: Mus musculus; assay: Toxicity in nude BALB/c mouse xenografted with human MDA-MB-468 cells assessed as mortality at 25 to 50 mg/kg, po administered once daily for 19 days and measured every 3 days; assay type: organism-based; conditions: in vivo, 456 h, dose 25-50 mg/kg, time 19 day
[26] = system: Mus musculus; assay: Toxicity in nude BALB/c mouse xenografted with human MDA-MB-231 cells assessed as morphological changes in liver at 25 to 50 mg/kg, po administered once daily for 19 days and measured every 3 days by H and E staining based assay; assay type: organism-based; conditions: in vivo, 456 h, dose 25-50 mg/kg, time 19 day
[27] = system: MDA-MB-468; assay: Induction of apoptosis in human MDA-MB-468 cells at 5 uM preincubated with 3-MA for 1 hr followed by compound addition and measured after 24 hrs by Annexin V-FITC/propidium iodide staining based flow cytometric analysis; assay type: functional, cell-based
[28] = target: Bromodomain-containing protein 3 (Homo sapiens, UniProt Q15059); assay: Inhibition of BRD3 BD2 (unknown origin) incubated for 2 hrs by TR-FRET assay
[29] = system: MDA-MB-231; assay: Induction of apoptosis in human MDA-MB-231 cells after 24 hrs by Annexin V-FITC/propidium iodide staining based flow cytometry; assay type: functional, cell-based; conditions: dose 2.5-10 µM
[30] = system: Mus musculus; assay: Toxicity in nude BALB/c mouse xenografted with human MDA-MB-468 cells assessed as morphological changes in kidney at 25 to 50 mg/kg, po administered once daily for 19 days and measured every 3 days by H and E staining based assay; assay type: organism-based; conditions: in vivo, 456 h, dose 25-50 mg/kg, time 19 day
[31] = target: Casein kinase II subunit alpha (Homo sapiens, UniProt P68400); assay: Inhibition of CK2 (unknown origin)
[32] = system: MDA-MB-468; assay: Induction of apoptosis in human MDA-MB-468 cells after 24 hrs by Hoechst 33258 staining fluorescence microscopic analysis; assay type: functional, cell-based; conditions: dose 2.5-10 µM
[33] = system: Mus musculus; assay: Toxicity in nude BALB/c mouse xenografted with human MDA-MB-231 cells assessed as morphological changes in kidney at 25 to 50 mg/kg, po administered once daily for 19 days and measured every 3 days by H and E staining based assay; assay type: organism-based; conditions: in vivo, 456 h, dose 25-50 mg/kg, time 19 day
[34] = system: Mus musculus; assay: Toxicity in nude BALB/c mouse xenografted with human MDA-MB-231 cells assessed as morphological changes in lung at 25 to 50 mg/kg, po administered once daily for 19 days and measured every 3 days by H and E staining based assay; assay type: organism-based; conditions: in vivo, 456 h, dose 25-50 mg/kg, time 19 day
[35] = target: T1, Bromodomain-containing protein 4; assay: Inhibition of BRD4 BD1 (unknown origin) incubated for 2 hrs by TR-FRET assay

Bromodomain-containing protein 3, sequence (Q15059 whole entry): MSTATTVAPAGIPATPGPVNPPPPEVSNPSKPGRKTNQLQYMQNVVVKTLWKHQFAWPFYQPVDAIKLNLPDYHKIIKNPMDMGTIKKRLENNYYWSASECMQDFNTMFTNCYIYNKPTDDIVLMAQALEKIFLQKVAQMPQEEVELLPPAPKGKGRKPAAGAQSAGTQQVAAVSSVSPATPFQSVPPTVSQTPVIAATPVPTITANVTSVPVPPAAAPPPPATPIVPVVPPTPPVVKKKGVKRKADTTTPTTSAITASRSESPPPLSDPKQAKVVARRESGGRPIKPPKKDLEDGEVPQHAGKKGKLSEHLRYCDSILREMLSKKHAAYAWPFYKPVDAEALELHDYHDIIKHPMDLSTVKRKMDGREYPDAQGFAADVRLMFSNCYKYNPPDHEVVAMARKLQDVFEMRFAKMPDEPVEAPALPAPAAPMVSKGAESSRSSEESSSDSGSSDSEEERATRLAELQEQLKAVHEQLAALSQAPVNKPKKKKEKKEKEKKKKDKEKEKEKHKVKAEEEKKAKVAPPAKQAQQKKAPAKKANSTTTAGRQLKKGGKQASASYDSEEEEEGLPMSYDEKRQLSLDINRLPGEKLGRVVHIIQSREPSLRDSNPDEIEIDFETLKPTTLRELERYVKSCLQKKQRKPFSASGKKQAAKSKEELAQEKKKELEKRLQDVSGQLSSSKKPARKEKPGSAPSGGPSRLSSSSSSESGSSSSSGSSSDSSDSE
Casein kinase II subunit alpha, sequence (P68400 whole entry): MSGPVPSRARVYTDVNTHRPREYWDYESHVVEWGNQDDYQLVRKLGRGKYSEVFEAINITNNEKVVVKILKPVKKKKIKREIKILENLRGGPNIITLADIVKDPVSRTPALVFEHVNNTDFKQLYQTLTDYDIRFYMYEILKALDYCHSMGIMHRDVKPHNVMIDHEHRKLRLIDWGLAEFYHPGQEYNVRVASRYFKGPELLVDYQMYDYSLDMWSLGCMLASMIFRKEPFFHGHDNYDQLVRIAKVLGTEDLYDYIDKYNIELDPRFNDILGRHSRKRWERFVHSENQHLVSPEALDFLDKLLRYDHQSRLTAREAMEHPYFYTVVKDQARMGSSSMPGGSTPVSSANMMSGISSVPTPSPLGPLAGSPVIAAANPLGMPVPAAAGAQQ

**Q.** For `COc1cc(OC)c2c(=O)[nH]c(-c3ccc(OCC(=O)Nc4ccc(N5CCN(C)CC5)c(Cl)c4)cc3)nc2c1`, which Activity [1] is on record?
**A.** inactive

**Q.** And the Activity [2]?
**A.** Active

**Q.** What about the inhibition [3] of the same molecule?
**A.** Dose-dependent effect

**Q.** What about the Activity [4] of the same molecule?
**A.** Non-Toxic

**Q.** What about the Activity [5] of the same molecule?
**A.** Non-Toxic

**Q.** And the Activity [6]?
**A.** Non-Toxic

**Q.** What about the Activity [7] of the same molecule?
**A.** Non-Toxic

**Q.** And the Activity [8]?
**A.** Active

**Q.** What about the inhibition [9] of the same molecule?
**A.** inactive

**Q.** What about the Activity [10] of the same molecule?
**A.** Active

**Q.** And the inhibition [11]?
**A.** Dose-dependent effect

**Q.** What about the Activity [12] of the same molecule?
**A.** inactive

**Q.** And the IC50 [13]?
**A.** 180 nM

**Q.** And the AUC(0-inf) [14]?
**A.** 2090 ng·h/mL

**Q.** What about the Activity [15] of the same molecule?
**A.** Active

**Q.** And the F [16]?
**A.** 32.5%

**Q.** What about the Activity [17] of the same molecule?
**A.** Non-Toxic

**Q.** What about the Activity [18] of the same molecule?
**A.** Active

**Q.** And the half-life [19]?
**A.** 4.21 h

**Q.** And the Activity [20]?
**A.** Dose-dependent effect

**Q.** And the Activity [21]?
**A.** Non-Toxic

**Q.** And the half-life [22]?
**A.** 5.17 h

**Q.** And the Activity [23]?
**A.** Non-Toxic

**Q.** And the Activity [24]?
**A.** Dose-dependent effect

**Q.** And the Activity [25]?
**A.** Non-Toxic

**Q.** What about the Activity [26] of the same molecule?
**A.** Non-Toxic

**Q.** And the Activity [27]?
**A.** inactive

**Q.** What about the IC50 [28] of the same molecule?
**A.** > 10000 nM

**Q.** What about the Activity [29] of the same molecule?
**A.** Dose-dependent effect

**Q.** What about the Activity [30] of the same molecule?
**A.** Non-Toxic

**Q.** What about the IC50 [31] of the same molecule?
**A.** 230 nM

**Q.** What about the Activity [32] of the same molecule?
**A.** Dose-dependent effect

**Q.** What about the Activity [33] of the same molecule?
**A.** Non-Toxic

**Q.** And the Activity [34]?
**A.** Non-Toxic

**Q.** What about the IC50 [35] of the same molecule?
**A.** 193 nM

Reference: ChEMBL document CHEMBL5053557, “Discovery of Novel Dual-Target Inhibitor of Bromodomain-Containing Protein 4/Casein Kinase 2 Inducing Apoptosis and Autophagy-Associated Cell Death for Triple-Negative Breast Cancer Therapy” (J Med Chem, 2021)
